Values quoted from earlier work, collected in patent EP1691200A1, “The use of BNP-type peptides and ANP-type peptides for assessing the risk of suffering from a cardiovascular complication as a consequence of volume overload” (F. HOFFMANN-LA ROCHE AG, priority 2005, dated 2006).

For `CS(=O)(=O)c1ccc(C2=C(c3ccccc3)C(=O)OC2)cc1` [rofecoxib], the “additional cardiovascular incidents (myocardial infarction, stroke)” value (25 mg rofecoxib compared with a placebo, after 18 months of follow-up) is given as 16 per 1,000 treated patients, the blood pressure levels (25 mg rofecoxib compared with a placebo, early post-observation phase) is given as “higher blood pressure levels” and the “rise in the rate of serious thromboembolic incidents” value (APPROVE study, patients without any recognisable cardiovascular risk, led to premature discontinuation) is given as 3.9 times.
